Test system: T1, potato leaves peroxidase (PLPOD)
T1 construct: gene POD; native enzyme from mature leaves (Nile Delta, Egypt); CM-cellulose and Sephacryl S-300; 64 kDa by gel filtration; 3 activity bands ~40-65 kDa on SDS-PAGE
Assay: guaiacol oxidation at […] nm, Lineweaver-Burk plot
Type: biochemical, Solanum tuberosum
Conditions: co-substrate H2O2; sodium acetate buffer pH 5.6 (general assay); mixture of isoenzymes; discussion b65 prints 0.066 mM

## COc1ccccc1O [guaiacol]
  Km: 67 µM
